Measurements published in ChEMBL document CHEMBL3217511, “Structure-activity evaluation of new uracil-based non-nucleoside inhibitors of HIV reverse transcriptase” (Medchemcomm, 2013).

Assays:
[1] = test system: Human immunodeficiency virus type 1 reverse transcriptase (Human immunodeficiency virus 1), Q72547 [K103N,Y181C]; experiment: Inhibition of HIV1 Reverse transcriptase p51/p66 K103N/Y181C mutant at 10 uM after 30 mins using alpha-[32P]dATP by liquid scintillation counting
[2] = test system: Human immunodeficiency virus 1; experiment: Inhibition of HIV1 Reverse transcriptase p51/p66 G190A mutant at 10 uM after 30 mins using alpha-[32P]dATP by liquid scintillation counting
[3] = test system: Human immunodeficiency virus type 1 reverse transcriptase (Human immunodeficiency virus 1), Q72547 [Y181C]; experiment: Inhibition of HIV1 Reverse transcriptase p51/p66 Y181C mutant at 10 uM after 30 mins using alpha-[32P]dATP by liquid scintillation counting
[4] = test system: Human immunodeficiency virus type 1 reverse transcriptase (Human immunodeficiency virus 1), Q72547 [V106A]; experiment: Inhibition of HIV1 Reverse transcriptase p51/p66 V106A mutant at 10 uM after 30 mins using alpha-[32P]dATP by liquid scintillation counting
[5] = test system: Human immunodeficiency virus type 1 reverse transcriptase (Human immunodeficiency virus 1), Q72547 [K103N]; experiment: Inhibition of HIV1 Reverse transcriptase p51/p66 K103N mutant at 10 uM after 30 mins using alpha-[32P]dATP by liquid scintillation counting
[6] = test system: Human immunodeficiency virus type 1 reverse transcriptase (Human immunodeficiency virus 1), Q72547 [L100I]; experiment: Inhibition of HIV1 Reverse transcriptase p51/p66 L100I mutant at 10 uM after 30 mins using alpha-[32P]dATP by liquid scintillation counting
[7] = molecular target: Human immunodeficiency virus type 1 reverse transcriptase (Human immunodeficiency virus 1) (UniProt Q72547); experiment: Inhibition of wild-type HIV1 Reverse transcriptase p51/p66 at 10 uM after 30 mins using alpha-[32P]dATP by liquid scintillation counting
[8] = test system: Human immunodeficiency virus 1; experiment: Selectivity ratio of IC50 for HIV1 Reverse transcriptase p51/p66 K103N mutant to IC50 for wild-type HIV1 Reverse transcriptase p51/p66
[9] = test system: Human immunodeficiency virus 1; experiment: Selectivity ratio of IC50 for HIV1 Reverse transcriptase p51/p66 L100I mutant to IC50 for wild-type HIV1 Reverse transcriptase p51/p66
[10] = molecular target: Human immunodeficiency virus type 1 reverse transcriptase (Human immunodeficiency virus 1, UniProt Q72547, K103N/Y181C); experiment: Inhibition of HIV1 Reverse transcriptase p51/p66 K103N/Y181C mutant after 30 mins using alpha-[32P]dATP by liquid scintillation counting
[11] = Inhibition of HIV1 Reverse transcriptase p51/p66 G190A mutant after 30 mins using alpha-[32P]dATP by liquid scintillation counting; set-up: species or system Human immunodeficiency virus 1
[12] = molecular target: Human immunodeficiency virus type 1 reverse transcriptase (Human immunodeficiency virus 1, UniProt Q72547, Y181C); experiment: Inhibition of HIV1 Reverse transcriptase p51/p66 Y181C mutant after 30 mins using alpha-[32P]dATP by liquid scintillation counting
[13] = molecular target: Human immunodeficiency virus type 1 reverse transcriptase (Human immunodeficiency virus 1, UniProt Q72547, V106A); experiment: Inhibition of HIV1 Reverse transcriptase p51/p66 V106A mutant after 30 mins using alpha-[32P]dATP by liquid scintillation counting
[14] = molecular target: Human immunodeficiency virus type 1 reverse transcriptase (Human immunodeficiency virus 1, UniProt Q72547, K103N); experiment: Inhibition of HIV1 Reverse transcriptase p51/p66 K103N mutant after 30 mins using alpha-[32P]dATP by liquid scintillation counting
[15] = molecular target: Human immunodeficiency virus type 1 reverse transcriptase (Human immunodeficiency virus 1, UniProt Q72547, L100I); experiment: Inhibition of HIV1 Reverse transcriptase p51/p66 L100I mutant after 30 mins using alpha-[32P]dATP by liquid scintillation counting
[16] = molecular target: Human immunodeficiency virus type 1 reverse transcriptase (Human immunodeficiency virus 1, UniProt Q72547); experiment: Inhibition of wild-type HIV1 Reverse transcriptase p51/p66 after 30 mins using alpha-[32P]dATP by liquid scintillation counting

O=C(OC1C=CC(n2ccc(=O)n(Cc3ccccc3)c2=O)C1)c1cc(Cl)cc(Cl)c1 (centres undefined)
inhibition [1]: 25% | inhibition [2]: < 10% | inhibition [3]: 17% | inhibition [4]: 20% | inhibition [5]: 53% | inhibition [6]: 89% | inhibition [7]: 59% | Ratio IC50 [8]: 1.69 | Ratio IC50 [9]: 0.25 | IC50 [10]: > 10 µM | IC50 [11]: > 100 µM | IC50 [12]: > 10 µM | IC50 [13]: > 10 µM | IC50 [14]: 8.8 µM | IC50 [15]: 1.29 µM | IC50 [16]: 5.1 µM

Cc1cc(C)cc(C(=O)OC2C=CC(n3ccc(=O)[nH]c3=O)C2)c1 (centres undefined)
IC50 [16]: > 100 µM

O=C(OC1C=CC(n2ccc(=O)[nH]c2=O)C1)c1cc(Cl)cc(Cl)c1 (centres undefined)
IC50 [16]: > 100 µM

O=C(Cc1ccccc1)OC1C=CC(n2ccc(=O)n(Cc3cc(F)cc(F)c3)c2=O)C1 (centres undefined)
IC50 [16]: > 100 µM

O=C(CCc1ccccc1)OC1C=CC(n2ccc(=O)n(Cc3cc(F)cc(F)c3)c2=O)C1 (centres undefined)
IC50 [16]: > 100 µM

O=C(OC1C=CC(n2ccc(=O)n(C(=O)c3cc(Cl)cc(Cl)c3)c2=O)C1)c1cc(Cl)cc(Cl)c1 (centres undefined)
IC50 [16]: > 100 µM

O=C(Oc1ccc(Cn2ccc(=O)n(Cc3ccccc3)c2=O)cc1)c1ccccc1
IC50 [16]: > 100 µM

O=C(CCc1ccccc1)OC1C=CC(n2ccc(=O)n(Cc3ccccc3)c2=O)C1 (centres undefined)
IC50 [16]: > 100 µM

O=C(OC1C=CC(n2ccc(=O)n(Cc3ccccc3)c2=O)C1)c1ccccc1 (centres undefined)
inhibition [1]: 15% | inhibition [2]: < 10% | inhibition [3]: 11% | inhibition [4]: 12% | inhibition [5]: 26% | inhibition [6]: 83% | inhibition [7]: 45% | IC50 [11]: > 50 µM

O=C(Oc1ccccc1Cn1ccc(=O)[nH]c1=O)c1ccccc1
IC50 [16]: > 100 µM

N#Cc1cccc(C(=O)OC2C=CC(n3ccc(=O)n(Cc4ccccc4)c3=O)C2)c1 (centres undefined)
IC50 [16]: > 100 µM

O=C(Cc1ccccc1)OC1C=CC(n2ccc(=O)n(Cc3ccccc3)c2=O)C1 (centres undefined)
IC50 [16]: 52 µM

Cc1cc(C)cc(C(=O)OC2C=CC(n3ccc(=O)n(C(=O)c4cc(C)cc(C)c4)c3=O)C2)c1 (centres undefined)
IC50 [16]: > 100 µM

O=C(Oc1ccccc1Cn1ccc(=O)n(Cc2ccccc2)c1=O)c1ccccc1
IC50 [16]: > 100 µM

O=C(Oc1cccc(Cn2ccc(=O)[nH]c2=O)c1)c1cc(Cl)cc(Cl)c1
IC50 [16]: 42 µM

O=C(Oc1cccc(Cn2ccc(=O)n(Cc3ccccc3)c2=O)c1)c1ccccc1
IC50 [16]: 32.3 µM

O=C(Oc1cccc(Cn2ccc(=O)[nH]c2=O)c1)c1ccccc1
IC50 [16]: > 100 µM

O=C(Oc1ccc(Cn2ccc(=O)[nH]c2=O)cc1)c1ccccc1
IC50 [16]: > 100 µM

Cc1ccnc2c1NC(=O)c1cccnc1N2C1CC1 [NEVIRAPINE]
inhibition [1]: < 10% | inhibition [2]: < 10% | inhibition [3]: < 10% | inhibition [4]: < 10% | inhibition [5]: < 10% | inhibition [6]: 48% | IC50 [11]: > 2000 µM

N#Cc1cccc(C(=O)OC2C=CC(n3ccc(=O)[nH]c3=O)C2)c1 (centres undefined)
IC50 [16]: > 100 µM

Cc1cc(C)cc(C(=O)OC2C=CC(n3ccc(=O)n(Cc4ccccc4)c3=O)C2)c1 (centres undefined)
inhibition [1]: 23% | inhibition [2]: < 10% | inhibition [3]: 24% | inhibition [4]: 14% | inhibition [5]: 37% | inhibition [6]: 77% | inhibition [7]: 52% | Ratio IC50 [8]: 2.11 | Ratio IC50 [9]: 0.26 | IC50 [10]: > 20 µM | IC50 [11]: > 100 µM | IC50 [12]: > 20 µM | IC50 [13]: > 20 µM | IC50 [14]: 17.3 µM | IC50 [15]: 2.1 µM | IC50 [16]: 8.2 µM
